Experimental data from patent US12409201B2, “Care composition and use thereof” (priority 2020, dated 2025).

How the values were obtained:
[1] = test system: Rat basophilic leukemia cells (RBL-2H3); experiment: β-hexosaminidase level (ELISA) in A23187-stimulated RBL-2H3 cells, anti-allergy effect; assay type: cell-based; conditions: positive control group, concentration not given; RBL-2H3, A23187 1 μg/mL; blank control = 100
Experimental: (§1) Rat basophilic leukemia cells (RBL-2H3) is seeded in a 96-well cell culture plate, with each well containing 5*10^4 cells. Cells are incubated in a 37-degree Celsius incubator with 5% CO2 overnight to allow attachment to the culture plate. Replace the culture medium with culture medium containing the care composition (hereinafter referred to as AMDS) of different dilution rates (1/1600, 1/800, 1/400, 1/200, and 1/100) and control groups (a blank control group and a positive control group, which is incubated in culture medium containing quercetin). After 30 minutes of incubation, A23187 (1 μg/mL) is added and allowed reaction for an hour. β-hexosaminidase level is analyzed by applying cell culture supernatant to enzyme-linked immunosorbent assay (ELISA). Replace the culture medium with that containing MTT (0.5 mg/mL), followed with 2-hour incubation. Discard the MTT-medium solution, and add DMSO (150 μL/well) to each well. Let sit in room temperature for 10 minutes, allowing the purple formazan to fully dissolve. The cell survival rate is calculated and determined by detecting the optical density (O.D.) at wavelength 570 in a spectrophotometer. Cell survival rate (%)=(sample OD570/blank control group OD570)*100%. […] The lower the β-hexosaminidase, the greater the anti-allergy effect. […]

[2] = test system: Rat basophilic leukemia cells (RBL-2H3); experiment: MTT cell survival rate of RBL-2H3; assay type: cell-based; conditions: positive control group, concentration not given; RBL-2H3, MTT
Experimental: as §1

O=c1c(O)c(-c2ccc(O)c(O)c2)oc2cc(O)cc(O)c12 [quercetin]
β-hexosaminidase (%) [1]: 1.8%
Cell survival rate (%) [2]: 87.97%
